Several values for one entry are separate records, joined by “and”; a condition that tells them apart may be missing. Identical values can stand only once.
Tests used:
A549 cells [1] = test: Crystal violet cell viability / antiproliferative assay, A549; assay type: cell-based, human; details: for Selectivity index SInd, A549: IC50(BEAS-2B)/IC50(A549); for IC50: human NSCLC A549 cells, treatment time 72 h
Protocol: (§1) Human non-small-cell lung cancer cell lines A549 and H1975 and the human bronchial epithelial BEAS-2B cell line were purchased from ATCC (Manassas, VA). Cells were cultured in Roswell Park Memorial Institute (RPMI)-1640 media supplemented with 10% v/v fetal bovine serum, 100 U·mL^–1 penicillin, and 100 μg·mL^–1 streptomycin. Cells were grown in a humidified atmosphere at 37 °C and 5% CO2.
(§2) Crystal violet staining was used to assess cell viability. […] After 72 h, the medium was discarded and cells were stained for 30 min with 5% w/v crystal violet solution in 66% v/v methanol, 200 μL per well. After staining, the crystal violet solution was removed, and the 24-well plate was washed with water to eliminate the excess solution. When dried, the plates were photographed. Quantitation of crystal violet staining was performed after solubilizing the dye in 10% acetic acid, 400 μL per well, and reading the absorbance of each well at 540 nm (HT Synergy 96-well microplate reader, Bio-Tek Instruments, Winooski, VT). The relative absorbance of untreated cells was considered as 100% viability; results were expressed as a percentage of viable cells vs untreated cells.

H1975 cells [2] = test: Crystal violet cell viability / antiproliferative assay, H1975; assay type: cell-based, human; details: for Selectivity index SInd, H1975: IC50(BEAS-2B)/IC50(H1975); for IC50: human NSCLC H1975 cells, treatment time 72 h
Protocol: as §1, §2

A549 and H1975 cells = test: ROS generation, CM-H2DCFDA fluorimetric assay, statements covering both cancer cell lines; assay type: cell-based, human; details: 1 h; for Effect of NAC addition on ROS generation: 20 μM compound, 50 μM NAC; for ROS generation compared with cisplatin, tamoxifen and 5-fluorouracil: both cancer cell types, 20 μM
Protocol: (§3) Then, detached cells were resuspended in 0.5 mL of phosphate-buffered saline (PBS) containing 10 μM·L^–1 fluorescent probe 5-(and-6)-chloromethyl-2′,7′-dichlorodihydrofluorescein diacetate-acetyl ester (CM-H2DCFDA) and incubated for 15 min at 37 °C. Afterward, the incubation cells were centrifuged at 13,000 rpm for 30 s and resuspended in 0.5 mL of PBS. The fluorescence of each sample (index of ROS levels) was read at 488 nm (λexcitation) and 520 nm (λemission). The results were expressed as DCF fluorescence per mg cell proteins normalized vs control.

BEAS-2B cells = test: Crystal violet cell viability / antiproliferative assay, BEAS-2B; assay type: cell-based, human; details: for IC50: nonmalignant human bronchial epithelium BEAS-2B cells, treatment time 72 h
Protocol: as §1, §2

[3] = Cyclic voltammetry in dichloromethane; assay type: physicochemical; details: for KC comproportionation constant: KC = exp(nF/RT)ΔE1/2, 25 °C; for Difference between the formal potentials: first and second oxidation; for E1°′ formal potential / E2°′ formal potential / E3°′ formal potential: vs FcH/[FcH]+, CH2Cl2, 0.1 mol·L–1 [NBu4][B(C6F5)4], 25 °C, scan rate 100 mV·s–1
Protocol: Electrochemical studies of compounds 1a, 1c, 2a, and 2c were carried out using cyclic voltammetry (CV) and square-wave voltammetry (SWV) (Table 1; Figures 5 (compounds 1a, 2a) and S13 (compounds 1c, 2c), see the SI). A solution of [NBu4][B(C6F5)4] (0.1 mol·L^–1) in anhydrous CH2Cl2 was used as the supporting electrolyte.[79] The choice of the supporting electrolyte was motivated by the beneficial properties of [B(C6F5)4]^− ions. In contrast to smaller counter ions such as [Cl]^−, [PF6]^−, [BF4]^−, or [ClO4]^−, [B(C6F5)4]^− tolerates the stabilization of greatly charged species in solution, minimizing undesired ion-pairing effects.[80],[81] The voltammetry experiments were performed at 25 °C. All potentials are referenced to the FcH/[FcH]^+ (Fc = Fe(η^5-C5H4)(η^5-C5H5)) redox couple (E°′ = 0 mV).[82]
Measurements on 1.0 mmol·L^–1 solutions of analytes 1a, 1c, 2a, and 2c in anhydrous dichloromethane solutions, containing 0.1 mol·L^–1 [NBu4][B(C6F5)4] as the supporting electrolyte, were conducted under an atmosphere of argon at 25 °C. A three-electrode cell, which utilized a Pt auxiliary electrode, a glassy carbon working electrode (surface area 0.031 cm^2), and an Ag/Ag^+ (0.01 mol·L^–1 AgNO3) reference electrode, was used as described in refs ([82]) and ([102]−[104]). […] Experimental potentials were referenced against an Ag/Ag^+ reference electrode, but results presented are referenced against the ferrocene [FcH/FcH^+ couple = 220 mV vs Ag/Ag^+, ΔEp = 61 mV; FcH = Fe(η^5-C5H5)2] as an internal standard.[82] When decamethylferrocene [Fc* = Fe(η^5-C5Me5)2] was used as an internal standard, the experimentally measured potentials were converted into Evs FcH/FcH^+ (under our conditions, the Fc*/Fc*^+ couple was at −614 mV vs FcH/FcH^+, ΔEp = 60 mV).

A549 cells [4] = test: ROS generation, CM-H2DCFDA fluorimetric assay, A549; assay type: cell-based, human; details: 20 μM, 1 h
Protocol: as §3

H1975 cells [5] = test: ROS generation, CM-H2DCFDA fluorimetric assay, H1975; assay type: cell-based, human; details: 20 μM, 1 h
Protocol: as §3

[6] = versus cisplatin, tamoxifen, 5-fluorouracil

SMILES	IC50 (A549 cells [1]) [µM]	IC50 (H1975 cells [2]) [µM]	IC50 (H1975 cells [2]; NCI-H1975) [µM]	KC comproportionation constant [3]	Difference between the formal potentials [3] [mV]	E1°′ formal potential [3]	E2°′ formal potential [3]	E3°′ formal potential [3]	Selectivity index SInd, A549 (A549 cells [1]; 72 h)	Selectivity index SInd, H1975 (H1975 cells [2]; 72 h)	Effect of NAC addition on ROS generation (A549 and H1975 cells)	IC50 (BEAS-2B cells) [µM]	ROS generation compared with cisplatin, tamoxifen and 5-fluorouracil (A549 and H1975 cells)	Increase of cell viability with NAC compared to cells treated only with compound (A549 cells [1]; A549 cells, 20 μM compound, 50 μM NAC, 72 h)	Increase of cell viability with NAC compared to cells treated only with compound (H1975 cells [2]; H1975 cells, 20 μM compound, 50 μM NAC, 72 h) [%]	ROS generated, times more than 1c (A549 cells [4]) [times]	ROS generation, times more potent than reference drugs (A549 cells [4]; [6]) [times]	ROS generated, times more than 1c (H1975 cells [5])	ROS generation, times more potent than reference drugs (H1975 cells [5]; [6])	Increase of cell viability with NAC compared to cells treated only with compound (BEAS-2B cells; BEAS-2B cells, 20 μM compound, 50 μM NAC, 72 h)
N.N.[Cl][Pt][Cl] [cisplatin, reference compound]	108 ± 12	4 ± 0.1							0.02	0.7	almost no effect	3 ± 0.1								
CC/C(=C(\c1ccccc1)c1ccc(OCCN(C)C)cc1)c1ccccc1 [tamoxifen]											almost no effect									
O=c1[nH]cc(F)c(=O)[nH]1 [5-fluorouracil, reference compound]	69 ± 21		32 ± 12						0.1	0.2	almost no effect	6 ± 0.1								

The next lines start with results.

IC50 (A549 cells [1]) [µM]	IC50 (H1975 cells [2]) [µM]	IC50 (H1975 cells [2]; NCI-H1975) [µM]	KC comproportionation constant [3]	Difference between the formal potentials [3] [mV]	E1°′ formal potential [3]	E2°′ formal potential [3]	E3°′ formal potential [3]	SMILES	Selectivity index SInd, A549 (A549 cells [1]; 72 h)	Selectivity index SInd, H1975 (H1975 cells [2]; 72 h)	Effect of NAC addition on ROS generation (A549 and H1975 cells)	IC50 (BEAS-2B cells) [µM]	ROS generation compared with cisplatin, tamoxifen and 5-fluorouracil (A549 and H1975 cells)	Increase of cell viability with NAC compared to cells treated only with compound (A549 cells [1]; A549 cells, 20 μM compound, 50 μM NAC, 72 h)	Increase of cell viability with NAC compared to cells treated only with compound (H1975 cells [2]; H1975 cells, 20 μM compound, 50 μM NAC, 72 h) [%]	ROS generated, times more than 1c (A549 cells [4]) [times]	ROS generation, times more potent than reference drugs (A549 cells [4]; [6]) [times]	ROS generated, times more than 1c (H1975 cells [5])	ROS generation, times more potent than reference drugs (H1975 cells [5]; [6])	Increase of cell viability with NAC compared to cells treated only with compound (BEAS-2B cells; BEAS-2B cells, 20 μM compound, 50 μM NAC, 72 h)
184 ± 7	84 ± 5		9426	235	45 mV and 45 (60) mV	280 mV and 280 (61) mV	365 mV and 365 (63) mV	O=C(CCn1nnc(-[c-]2cccc2)c1C#C[c-]1cccc1)[c-]1cccc1.[Fe+2].[Fe+2].[Fe+2].c1cc[cH-]c1.c1cc[cH-]c1.c1cc[cH-]c1 [compound 2a, 1-(3-Propionylferrocenyl)-4-ferrocenyl-5-ethynylferrocenyl-1H-1,2,3-triazole]	1.4	3.0		257 ± 5								
230 ± 13	456 ± 17				60 mV and 60 (66) mV			Cc1cn([C@H]2C[C@H](n3cc(-[c-]4cccc4)nn3)[C@@H](CO)O2)c(=O)[nH]c1=O.[Fe+2].c1cc[cH-]c1 [compound 1c, 3′-Deoxy-3′-(4-ferrocenyl-1H-1,2,3-triazol-1-yl)thymidine]	0.9	0.5		215 ± 7	more effective ROS generators							
805 ± 72	122 ± 45				20 mV and 20 (61) mV		330 mV and 330 (67) mV	O=C(CCn1cc(-[c-]2cccc2)nn1)[c-]1cccc1.[Fe+2].[Fe+2].c1cc[cH-]c1.c1cc[cH-]c1 [compound 2c, 1-(3-Propionyloferrocenyl)-4-ferrocenyl-1H-1,2,3-triazole]	0.2	1.6		198 ± 7								
57 ± 18	5 ± 2		2412	200	80 mV and 80 (60) mV	280 mV and 280 (66) mV		Cc1cn([C@H]2C[C@H](n3nnc(-[c-]4cccc4)c3C#C[c-]3cccc3)[C@@H](CO)O2)c(=O)[nH]c1=O.[Fe+2].[Fe+2].c1cc[cH-]c1.c1cc[cH-]c1 [compound 1a, 3′-Deoxy-3′-(4-ferrocenyl-5-ethynylferrocenyl-1H-1,2,3-triazol-1-yl)thymidine]	8.2	93.8		469 ± 10	more effective ROS generators	analogous increase	~20	~2.5	~2.5	about 1.6 times	about 2 times	analogous increase

Reference: article PMC9490837, “Electronic Coupling in 1,2,3-Triazole Bridged Ferrocenes and Its Impact on Reactive Oxygen Species Generation and Deleterious Activity in Cancer Cells” (Inorganic Chemistry, 2022)
